According to US8633226B2, “Piperidinyl derivative as a modulator of chemokine receptor activity” (Bristol-Myers Squibb Company, priority 2008, dated 2014):

Assays:
Human PXR = Human PXR (Homo sapiens (Human), UniProt O75469); test: PXR transactivation assay; type: cell-based
Source text: The cell culture medium used is DMEM. […] Charcoal/dextran treated fetal bovine serum (FBS) was purchased from Hyclone (Logan, Utah). HepG2 cells were obtained from ATCC (Manassas, Va.). Human PXR-pcDNA3 and luciferase reporter containing CYP3A4 promoter, CYP3A-Luc, were generated at Bristol-Myers Squibb. White tissue culture (TC)-surface 384-well plates were purchased from Perkin Elmer (Boston, Mass.). Luciferase substrate (Steady-Glo) was purchased from Promega (Madison, Wis.). Control compounds rifampicin, mifepristone, and sulfinpyrazone were purchased from Sigma (St. Louis, Mo.).
Culture of HepG2 cells is performed in T175 flasks using DMEM containing 10% FBS. The transfection mixture contains 1 μg/mL of PXR-pcDNA3 plasmid DNA, 20 μg/ml of Cyp3A-Lue plasmid DNA, 90 μL/mL of Lipofectamine 2000, and serum-free medium. After incubating at room temperature for 20 minutes, the transfection mixture (1 ml per flask) is applied to the cells in fresh medium (20 mL per flask), and flasks incubated at 37° C. (5% CO2) overnight.
The flasks are then tapped vigorously to break up cell aggregates. After the addition of 8 mL of DMEM containing 5% charcoal/dextran-treated FBS, the entire mixture is transferred to conical tubes. Cells are then centrifuged at 1000 rpm for 5 minutes. Cell pellets are resuspended to a final count of ˜7×10^6 cells/ml, in freezing media (DMEM containing 20% serum and 10% DMSO). The cell suspension is aliquoted into 15-mL polypropylene tubes, 5 mL per tube. Cells are slowly frozen by placing in a Styrofoam-insulated container at −80° C. overnight. Vials are transferred to an Ultracold (−140° C.) freezer after 24 hours for long-term storage.
Vials of cryopreserved cells are thawed rapidly in a warm water bath for five minutes. Cells are pooled and diluted to 50 mL in a 50-mL conical vial. The thawed cells are centrifuged at 1500 rpm for 5 minutes to collect the cells and the supernatant discarded. Cells are then resuspended in fresh Media II (DMEM containing 5% charcoal/dextran-treated FBS, 1% Penicillin/Streptomycin, 100 μM Non-essential Amino Acids, 1 mM Sodium Pyruvate, and 2 mM L-Glutamine), counted using the Guava Cell Counter, and diluted to 1.6×10^5 cells/ml in the same media.
Fifty microliters of cell mixture is added to wells in columns 1-23 of white tissue-culture treated 384-well plates containing 0.25 μL of test compound dissolved in 100% DMSO. Fifty microliters of Media II is added to wells in column 24. The plates are incubated at 37° C. (5% CO2) for 24 hours, then 5 μL of Alamar Blue reagent (Trek Diagnostics, Cat #00-100) is added to each well. Plates are then incubated an additional two hours at 37° C., 5% CO2 and then one hour at room temperature. […] After the fluorescence is measured, 25 μL of luciferase substrate (Steady-Glo, Promega) is added to each well. The plates are incubated for fifteen minutes at room temperature, after which the luminescence is read on a PheraStar (BMG Labtech) plate reader.
Rifampicin (10 μM), a well-known agonist of PXR, is included in each plate as an internal standard and positive control. The data is then expressed as percent control (% CTRL), where the control signal is the signal from the 10 μM rifampicin and the blank signal is that from the DMSO vehicle. % CTRL=((Compound signal−Blank signal)/(Control signal−Blank signal))*100
The EC50 is defined as the concentration corresponding to half of the maximal response derived from the fitted 20-point curve as determined using a four-parameter logistic regression model. Additionally, compounds may also be reported as EC20 or EC60.

[1] = In vitro metabolism assay, human liver microsomes, Assay Conditions A; type: in vitro ADME; conditions: 0.5 μM compound, 10 minutes, 37° C.
Procedure: Test compound is received as a 3.5 mM stock solution in 100 percent DMSO. Compound is diluted to create a 50 μM acetonitrile (ACN) solution containing 1.4% DMSO, which is then used as a 100× stock for incubation with microsomes. Each compound is tested in duplicate separately in each of three species in the Metabolic Stability-Human, Rat, and Mouse assay suite or as individual species in the Metabolic Stability-Dog or Metabolic Stability-Monkey suites. Compound, NADPH and liver microsome solutions are combined for incubation in three steps:
152 μL of liver microsome suspension, protein concentration of 1.1 mg/mL in 100 mM NaPi, pH 7.4, 6.6 mM MgCl2 buffer, is pre-warmed at 37° C.
• 1) 1.7 μL of 50 μM compound (98.6% ACN, 1.4% DMSO) is added to the same tube and pre-incubated at 37° C. for 5 minutes. • 2) The reaction is initiated by the addition of 17 μL of pre-warmed 10 mM NADPH solution in 100 mM NaPi, pH 7.4. • 3) Reaction components are mixed well, and 75 μL are immediately transferred into 150 μl quench/stop solution (zero-time point, T0). Reactions are incubated at 37° C. for 10 minutes and then an additional 75 μL aliquot is transferred into 150 μL quench solution. Acetonitrile containing 100 μM DMN (a UV standard for injection quality control), is used as the quench solution to terminate metabolic reactions. • 4) Quenched mixtures are centrifuged at 1500 rpm (˜500×g) in an Allegra X-12 centrifuge, SX4750 rotor (Beckman Coulter Inc., Fullerton, Calif.) for fifteen minutes to pellet denatured microsomes. A volume of 90 μL of supernatant extract, containing the mixture of parent compound and its metabolites, is then transferred to a separate 96-well plate for UV-LC/MS-MS analysis to determine the percent of parent compound that is remaining in the mixture. • 5)

[2] = HepG2 cells, CYP3A-Luc reporter

Chain of Human PXR (O75469 whole entry): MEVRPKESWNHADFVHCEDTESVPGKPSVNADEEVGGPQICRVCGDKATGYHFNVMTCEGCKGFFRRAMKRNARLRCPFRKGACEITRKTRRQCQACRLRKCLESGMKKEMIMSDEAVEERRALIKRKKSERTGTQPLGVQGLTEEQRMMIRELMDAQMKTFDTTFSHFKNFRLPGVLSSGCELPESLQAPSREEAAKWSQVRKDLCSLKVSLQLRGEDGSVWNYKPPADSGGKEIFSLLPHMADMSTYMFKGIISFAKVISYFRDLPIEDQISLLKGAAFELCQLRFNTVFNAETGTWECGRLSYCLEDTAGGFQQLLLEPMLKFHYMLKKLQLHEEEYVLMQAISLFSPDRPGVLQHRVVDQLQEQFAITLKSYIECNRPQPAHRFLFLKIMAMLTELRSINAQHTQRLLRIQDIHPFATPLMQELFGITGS

Which EC50 (Human PXR; [2]) does the source give for `CC(C)[C@@H](NC(=O)C1CCCC1)C(=O)N1CC[C@](O)(c2ccc(Cl)cc2)C(C)(C)C1` [#460] here?
Its EC50 is 530 nM.

What about the “Human Liver Microsomal Metabolism % remaining (Assay Conditions A)” value [1] of the same molecule?
The value was 47%.

For `CC(C)CC(=O)N[C@@H](C(=O)N1CC[C@](O)(c2ccc(Cl)cc2)C(C)(C)C1)C(C)C` [#466], which “PXR EC60” value (Human PXR; HepG2 cells, CYP3A-Luc reporter, reported as EC60) is on record?
The value was 1120 nM.

What about the “Human Liver Microsomal Metabolism % remaining (Assay Conditions A)” value [1] of the same molecule?
Its value is 67%.

With `CC(C)[C@@H](NC(=O)CC(C)(C)O)C(=O)N1CC[C@](O)(c2ccc(Cl)cc2)C(C)(C)C1` [#1356] as the molecule, how does the EC50 (Human PXR; [2]) read?
Its EC50 is 1830 nM.

And the “Human Liver Microsomal Metabolism % remaining (Assay Conditions A)” value [1]?
The value was 100% (A)/100% (B).

What does the source list for `CC(C)[C@@H](NC(=O)NCC(C)(C)O)C(=O)N1CC[C@](O)(c2ccc(Cl)cc2)C(C)(C)C1` [Compound I]?
EC50 (Human PXR; [2]): > 25000 nM; PXR activation (in words) (Human PXR; in vitro screen): not a significant activator
